Measurements from the supplement of paper PMC10307832.

Tests used:
Assay in all cases: relative viability (nuclei count vs DMSO), 5 days (fraction); higher = more cells survive
[1] = tested on: LCLC-103H
Method in brief: (§1)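 Lung cancer cell lines in 1536-well plates got either a single drug or a fixed anchor-drug dose together with five library-drug doses (not always all listed) in √10 steps, by pin tool, on the day after seeding. Nuclei were counted after 5 days, and relative viability is the treated-to-vehicle ratio of nuclei counts. Values are medians of duplicate plates.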

[2] = tested on: HCC-827
Method in brief: as §1

[3] = tested on: HCC-44
Method in brief: as §1

[4] = tested on: NCI-H1944
Method in brief: as §1

[5] = tested on: NCI-H1666
Method in brief: as §1

[6] = tested on: ABC-1
Method in brief: as §1

[7] = tested on: LXF-289
Method in brief: as §1

[8] = tested on: CAL-12T
Method in brief: as §1

[9] = tested on: RERF-LC-KJ
Method in brief: as §1

[10] = tested on: NCI-H1793
Method in brief: as §1

[11] = tested on: NCI-H1755
Method in brief: as §1

[12] = tested on: SK-LU-1
Method in brief: as §1

[13] = tested on: NCI-H1395
Method in brief: as §1

[14] = tested on: LU99A
Method in brief: as §1

[15] = tested on: NCI-H2126
Method in brief: as §1

[16] = tested on: NCI-H2347
Method in brief: as §1

[17] = tested on: NCI-H3122
Method in brief: as §1

[18] = tested on: NCI-H1792
Method in brief: as §1

[19] = tested on: NCI-H322M
Method in brief: as §1

[20] = tested on: NCI-H358
Method in brief: as §1

[21] = tested on: NCI-H520
Method in brief: as §1

[22] = tested on: ChaGo-K-1
Method in brief: as §1

Cc1csc(=NC2CCCCC2)n1/N=C/c1ccc(O)c(O)c1O [MIM1] + O=C(c1cc(Cc2n[nH]c(=O)c3ccccc23)ccc1F)N1CCN(C(=O)C2CC2)CC1 [Olaparib] (partner 8 µM)
relative viability ([1]; first compound 0.2 µM): 0.814 | relative viability ([1]; first compound 0.6325 µM): 0.771 | relative viability ([1]; first compound 2 µM): 0.782 | relative viability ([1]; first compound 6.325 µM): 0.532 | relative viability ([1]; first compound 20 µM): 0.336 | relative viability ([2]; first compound 0.2 µM): 0.653 | relative viability ([2]; first compound 0.6325 µM): 0.626 | relative viability ([2]; first compound 2 µM): 0.639 | relative viability ([2]; first compound 6.325 µM): 0.37 | relative viability ([2]; first compound 20 µM): 0.241 | relative viability ([3]; first compound 0.2 µM): 1.02 | relative viability ([3]; first compound 0.6325 µM): 0.975 | relative viability ([3]; first compound 2 µM): 0.859 | relative viability ([3]; first compound 6.325 µM): 0.675 | relative viability ([3]; first compound 20 µM): 0.455 | relative viability ([4]; first compound 0.2 µM): 0.405 | relative viability ([4]; first compound 0.6325 µM): 0.422 | relative viability ([4]; first compound 2 µM): 0.352 | relative viability ([4]; first compound 6.325 µM): 0.32 | relative viability ([4]; first compound 20 µM): 0.131 | relative viability ([5]; first compound 0.2 µM): 0.71 | relative viability ([5]; first compound 0.6325 µM): 0.739 | relative viability ([5]; first compound 2 µM): 0.665 | relative viability ([5]; first compound 6.325 µM): 0.72 | relative viability ([5]; first compound 20 µM): 0.707 | relative viability ([6]; first compound 0.2 µM): 0.952 | relative viability ([6]; first compound 0.6325 µM): 1.27 | relative viability ([6]; first compound 2 µM): 1.03 | relative viability ([6]; first compound 6.325 µM): 0.78 | relative viability ([6]; first compound 20 µM): 0.388 | relative viability ([7]; first compound 0.2 µM): 1.04 | relative viability ([7]; first compound 0.6325 µM): 0.844 | relative viability ([7]; first compound 2 µM): 1.13 | relative viability ([7]; first compound 6.325 µM): 0.915 | relative viability ([7]; first compound 20 µM): 0.179 | relative viability ([8]; first compound 0.2 µM): 0.708 | relative viability ([8]; first compound 0.6325 µM): 0.685 | relative viability ([8]; first compound 2 µM): 0.682 | relative viability ([8]; first compound 6.325 µM): 0.505 | relative viability ([8]; first compound 20 µM): 0.396 | relative viability ([9]; first compound 0.2 µM): 0.662 | relative viability ([9]; first compound 0.6325 µM): 0.557 | relative viability ([9]; first compound 2 µM): 0.197 | relative viability ([9]; first compound 6.325 µM): 0.221 | relative viability ([9]; first compound 20 µM): 0.215 | relative viability ([10]; first compound 0.2 µM): 0.942 | relative viability ([10]; first compound 2 µM): 0.899 | relative viability ([10]; first compound 6.325 µM): 0.686 | relative viability ([10]; first compound 20 µM): 0.839 | relative viability ([11]; first compound 0.2 µM): 0.857 | relative viability ([11]; first compound 0.6325 µM): 0.84 | relative viability ([11]; first compound 2 µM): 0.94 | relative viability ([11]; first compound 6.325 µM): 0.699 | relative viability ([11]; first compound 20 µM): 0.262 | relative viability ([12]; first compound 0.2 µM): 0.447 | relative viability ([12]; first compound 0.6325 µM): 0.559 | relative viability ([12]; first compound 2 µM): 0.575 | relative viability ([12]; first compound 6.325 µM): 0.281 | relative viability ([12]; first compound 20 µM): 0.299 | relative viability ([13]; first compound 0.2 µM): 0.454 | relative viability ([13]; first compound 0.6325 µM): 0.485 | relative viability ([13]; first compound 2 µM): 0.414 | relative viability ([13]; first compound 6.325 µM): 0.436 | relative viability ([13]; first compound 20 µM): 0.346 | relative viability ([14]; first compound 0.2 µM): 0.298 | relative viability ([14]; first compound 0.6325 µM): 0.246 | relative viability ([14]; first compound 2 µM): 0.207 | relative viability ([14]; first compound 6.325 µM): 0.272 | relative viability ([14]; first compound 20 µM): 0.125 | relative viability ([15]; first compound 0.2 µM): 0.936 | relative viability ([15]; first compound 0.6325 µM): 0.879 | relative viability ([15]; first compound 2 µM): 0.916 | relative viability ([15]; first compound 6.325 µM): 0.849 | relative viability ([15]; first compound 20 µM): 0.401 | relative viability ([16]; first compound 0.2 µM): 0.525 | relative viability ([16]; first compound 0.6325 µM): 0.559 | relative viability ([16]; first compound 2 µM): 0.653 | relative viability ([16]; first compound 6.325 µM): 0.508 | relative viability ([16]; first compound 20 µM): 0.469 | relative viability ([17]; first compound 0.2 µM): 0.626 | relative viability ([17]; first compound 0.6325 µM): 0.643 | relative viability ([17]; first compound 2 µM): 0.618 | relative viability ([17]; first compound 6.325 µM): 0.325 | relative viability ([17]; first compound 20 µM): 0.113 | relative viability ([18]; first compound 0.2 µM): 0.469 | relative viability ([18]; first compound 0.6325 µM): 0.368 | relative viability ([18]; first compound 2 µM): 0.454 | relative viability ([18]; first compound 6.325 µM): 0.279 | relative viability ([18]; first compound 20 µM): 0.398 | relative viability ([19]; first compound 0.2 µM): 0.742 | relative viability ([19]; first compound 0.6325 µM): 0.683 | relative viability ([19]; first compound 2 µM): 0.72 | relative viability ([19]; first compound 6.325 µM): 0.746 | relative viability ([19]; first compound 20 µM): 0.367 | relative viability ([20]; first compound 0.2 µM): 0.558 | relative viability ([20]; first compound 0.6325 µM): 0.533 | relative viability ([20]; first compound 2 µM): 0.516 | relative viability ([20]; first compound 6.325 µM): 0.379 | relative viability ([20]; first compound 20 µM): 0.123 | relative viability ([21]; first compound 0.2 µM): 0.333 | relative viability ([21]; first compound 0.6325 µM): 0.346 | relative viability ([21]; first compound 2 µM): 0.349 | relative viability ([21]; first compound 6.325 µM): 0.242 | relative viability ([21]; first compound 20 µM): 0.209 | relative viability ([22]; first compound 0.2 µM): 0.399 | relative viability ([22]; first compound 0.6325 µM): 0.346 | relative viability ([22]; first compound 2 µM): 0.385 | relative viability ([22]; first compound 6.325 µM): 0.214 | relative viability ([22]; first compound 20 µM): 0.127
